These results are taken from patent US20230089247A1, “NOVEL COMPOUNDS SUITABLE FOR THE TREATMENT OF DYSLIPIDEMIA” (ZYDUS LIFESCIENCES LIMITED, priority 2019, published 2023).

Assay [1] deals with PCSK9 (Homo sapiens, UniProt Q8NBP7). The experiment in a line: BODIPY-LDL uptake assay in HepG2 cells. Format: cell-based. Particulars: 5 μg/ml PCSK9, BODIPY-LDL. The method in brief:
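Compounds pre-incubated 60 min with 5 μg/ml PCSK9 (0.2% DMSO), then added to HepG2 cells for 16 h; 1 μg/ml BODIPY-LDL added in serum-free medium for 5 h. Fluorescence (Ex 485/Em 520 nm) normalized to protein; PCSK9-only wells = 0%, no-PCSK9 wells = 100% uptake, giving percent increase in LDL uptake.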

For assay [2], the system named is High Fat Diet C57 Mice. The experiment in a line: LDL-C lowering activity in high fat diet C57 mice. Particulars: Mus musculus, po, 168 h; C57 mice on high fat diet; 30 mg/Kg orally once a day, 7 days treatment, blood on day 7; read-out: % Change Vs Vehicle Control in LDLc. The format is in vivo. On the procedure: LDL-C Lowering Activity—in High Fat Diet C57 Mice
The in-vivo LDL-c lowering for test compound was tested in C57 mice which were kept on high fat diet for 4 weeks and the blood was collected by retro-orbital sinus puncture method under light ether anesthesia on day 0 (pretreatment). Animal are grouped based on LDL-c levels, after that 7 days treatment with vehicle or test compound orally at a dose of 30 mpk dose once a day was given. On completion of treatment on day 7 of the treatment the blood was collected for LDL-c and TC levels measurement.

Chain of PCSK9 (Q8NBP7 153-692): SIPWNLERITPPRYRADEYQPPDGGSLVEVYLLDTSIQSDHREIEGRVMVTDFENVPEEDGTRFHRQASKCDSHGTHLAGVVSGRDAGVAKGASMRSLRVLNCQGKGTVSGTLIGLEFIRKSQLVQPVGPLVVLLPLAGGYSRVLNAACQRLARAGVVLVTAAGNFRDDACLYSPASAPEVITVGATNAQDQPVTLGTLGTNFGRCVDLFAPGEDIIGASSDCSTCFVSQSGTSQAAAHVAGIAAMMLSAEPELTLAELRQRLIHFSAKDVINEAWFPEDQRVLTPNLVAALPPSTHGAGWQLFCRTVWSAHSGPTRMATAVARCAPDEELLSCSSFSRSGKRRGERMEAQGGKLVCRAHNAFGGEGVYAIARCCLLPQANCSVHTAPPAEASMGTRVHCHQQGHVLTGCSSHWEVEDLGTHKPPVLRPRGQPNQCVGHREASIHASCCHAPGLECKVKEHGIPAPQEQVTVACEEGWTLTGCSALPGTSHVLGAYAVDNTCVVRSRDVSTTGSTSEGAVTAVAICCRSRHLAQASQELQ

For the compound `COC1(c2ccc(C(=O)N3CCC(c4ccc(C(F)(F)F)cc4)CC3)cc2)COC1` [Example 2, (4-(3-methoxyoxetan-3-yl)phenyl)(4-(4-(trifluoromethyl)phenyl)piperidin-1-yl)methanone], the “% increase in LDL Uptake” value in assay [1] (1 μM test compound) is on record as 13%; in assay [1] (10 μM test compound), 86%; in assay [1] (30 μM test compound) it was 172%. In addition, the change in vivo at 30 mg/kg in assay [2] is -45 ± 5%.
Turning to `[2H]C([2H])([2H])OC1(c2ccc(C(=O)N3CC4CN(c5ccc(C(F)(F)F)cc5)CC4C3)cc2)COC1` (centres unmarked) [Example 134, (4-(3-(methoxy-d3)oxetan-3-yl)phenyl)(5-(4-(trifluoromethyl)phenyl)hexahydropyrrolo[3,4-c]pyrrol-2(1H)-yl)methanone], the “% increase in LDL Uptake” value was found to be 3% in assay [1] (1 μM test compound), 28% in assay [1] (10 μM test compound) and 43% in assay [1] (30 μM test compound). In addition, the change in vivo at 30 mg/kg in assay [2] is -38 ± 7%.
As to `[2H]C([2H])([2H])OC1(c2ccc(C(=O)N3CCC(c4ccc(C(F)(F)F)cc4)CC3)cc2)COC1` [Example 76, (4-(3-(methoxy-d3)oxetan-3-yl)phenyl)(4-(4-(trifluoromethyl)phenyl)piperidin-1-yl)methanone], the entries for the “% increase in LDL Uptake” value in assay [1] (1 μM test compound), in assay [1] (10 μM test compound) and in assay [1] (30 μM test compound) were 10%, 98% and 108%, respectively. Besides, the change in vivo at 30 mg/kg in assay [2] is -28 ± 7%.
In the case of `O=C(c1ccc(C2(O)COC2)cc1)N1CC2CN(c3ccc(C(F)(F)F)cc3)CC2C1` (centres unmarked) [Example 11, (4-(3-hydroxyoxetan-3-yl)phenyl)(5-(4-(trifluoromethyl)phenyl)hexahydropyrrolo[3,4-c]pyrrol-2 (1H)-yl)methanone], the “% increase in LDL Uptake” value is on record as 6% in assay [1] (1 μM test compound), 59% in assay [1] (10 μM test compound) and 116% in assay [1] (30 μM test compound). For the same compound, in assay [2], the change in vivo at 30 mg/kg is -48 ± 5%.
Consider `O=C(c1ccc(C2(O)COC2)cc1)N1CCCC(c2ccc(C(F)(F)F)cc2)C1` (centres unmarked) [Example 34, (4-(3-hydroxyoxetan-3-yl)phenyl)(3-(4-(trifluoromethyl)phenyl)piperidin-1-yl)methanone], for which the entries for the “% increase in LDL Uptake” value in assay [1] (1 μM test compound), in assay [1] (10 μM test compound) and in assay [1] (30 μM test compound) were 27%, 86% and 252%, respectively. Also, in assay [2], the change in vivo at 30 mg/kg is -31 ± 8%.
With `O=C(c1ccc(C2(O)COC2)cc1)N1CC2CN(c3ccc(C(F)(F)F)nc3)CC2C1` (centres unmarked) [Example 215, (4-(3-hydroxyoxetan-3-yl)phenyl)(5-(6-(trifluoromethyl)pyridin-3-yl)hexahydropyrrolo[3,4-c]pyrrol-2(1H)-yl)methanone], the “% increase in LDL Uptake” value in assay [1] (1 μM test compound) amounted to 0%; in assay [1] (10 μM test compound), 90%; in assay [1] (30 μM test compound) it was 140%. The change in vivo at 30 mg/kg in assay [2] was -29 ± 5%.
For `OC1(c2ccc(N3CCC(c4ccc(C(F)(F)F)cc4)CC3)cc2)COC1` [Example 8, 3-(4-(4-(4-(trifluoromethyl)phenyl)piperidin-1-yl)phenyl)oxetan-3-ol], the “% increase in LDL Uptake” value in assay [1] (1 μM test compound) was determined as 0%; in assay [1] (10 μM test compound) it was 73%; in assay [1] (30 μM test compound), 114%. The change in vivo at 30 mg/kg in assay [2] was -30 ± 8%.
With `O=C(c1ccc(C2(O)COC2)cc1)N1CCC(O)(c2ccc(C(F)(F)F)cc2)CC1` [Example 86, (4-hydroxy-4-(4-(trifluoromethyl)phenyl)piperidin-1-yl)(4-(3-hydroxyoxetan-3-yl)phenyl)methanone], the “% increase in LDL Uptake” value is reported as 2% in assay [1] (1 μM test compound), 33% in assay [1] (10 μM test compound) and 55% in assay [1] (30 μM test compound). For the same compound, in assay [2], the change in vivo at 30 mg/kg was -28 ± 4%.
Turning to `O=C(c1cccc(C2(O)COC2)c1)N1CCN(c2ccc(C(F)(F)F)cn2)CC1` [Example 220, (3-(3-hydroxyoxetan-3-yl)phenyl)(4-(5-(trifluoromethyl)pyridin-2-yl)piperazin-1-yl)methanone], the “% increase in LDL Uptake” value in assay [1] (1 μM test compound) amounted to 8%; in assay [1] (10 μM test compound) it was 31%; in assay [1] (30 μM test compound), 56%. Moreover, in assay [2], the change in vivo at 30 mg/kg is -16%.
On to `CCOC1(c2ccc(C(=O)N3CCC(c4ccc(C(F)(F)F)cc4)CC3)cc2)COC1` [Example 43, (4-(3-ethoxyoxetan-3-yl)phenyl)(4-(4-(trifluoromethyl)phenyl)piperidin-1-yl)methanone], for which the figures for the “% increase in LDL Uptake” value in assay [1] (1 μM test compound), in assay [1] (10 μM test compound) and in assay [1] (30 μM test compound) were 0%, 12% and 5%, respectively. Also, the change in vivo at 30 mg/kg in assay [2] is -27 ± 10%.
For `O=C(c1ccc(C2(O)CCOCC2)cc1)N1CCC(c2ccc(C(F)(F)F)cc2)CC1` [Example 142, (4-(4-hydroxytetrahydro-2H-pyran-4-yl)phenyl)(4-(4-(trifluoromethyl)phenyl)piperidin-1-yl)methanone] the same measures were 0%, 77%, 16% and -26 ± 10%.
Turning to `O=C(c1ccc(C2(O)COC2)cc1)N1CC2CC(O)(c3ccc(C(F)(F)F)cc3)CC2C1` (centres unmarked) [Example 105, (5-hydroxy-5-(4-(trifluoromethyl)phenyl)hexahydrocyclopenta[c]pyrrol-2(1H)-yl)(4-(3-hydroxyoxetan-3-yl)phenyl)methanone], the “% increase in LDL Uptake” value is on record as 92% in assay [1] (1 μM test compound), 130% in assay [1] (10 μM test compound) and 101% in assay [1] (30 μM test compound). Moreover, in assay [2], the change in vivo at 30 mg/kg is -7 ± 7%.
For `O=C(c1ccc(C2(O)COC2)cc1)N1CC2CC(c3ccc(C(F)(F)F)cc3)CC2C1` (centres unmarked) [Example 10, (4-(3-hydroxyoxetan-3-yl)phenyl)(5-(4-(trifluoromethyl)phenyl)hexahydrocyclopenta[c]pyrrol-2(1H)-yl)methanone] the same measures were 0%, 273%, 347% and -15 ± 8%.
On to `COC1(c2ccc(C(=O)N3CC4CN(c5ccc(C(F)(F)F)nc5)CC4C3)cc2)COC1` (centres unmarked) [Example 206, (4-(3-methoxyoxetan-3-yl)phenyl)(5-(6-(trifluoromethyl)pyridin-3-yl)hexahydropyrrolo[3,4-c]pyrrol-2(1H)-yl)methanone], for which the “% increase in LDL Uptake” value in assay [1] (1 μM test compound) is given as 0%; in assay [1] (10 μM test compound), 81%; in assay [1] (30 μM test compound), 127%. In addition, the change in vivo at 30 mg/kg in assay [2] was -18.6 ± 5.7%.
With `O=C(c1ccc(C2(O)COC2)cc1)N1CCN(c2ccc(C(F)(F)F)cn2)CC1` [Example 216, (4-(3-hydroxyoxetan-3-yl)phenyl)(4-(5-(trifluoromethyl)pyridin-2-yl)piperazin-1-yl)methanone], the “% increase in LDL Uptake” value is 0% in assay [1] (1 μM test compound), 64% in assay [1] (10 μM test compound) and 189% in assay [1] (30 μM test compound). In addition, in assay [2], the change in vivo at 30 mg/kg is -40 ± 6%.
For `COC1(c2ccc(C(=O)N3Cc4cn(-c5ccc(C(F)(F)F)cc5)nc4C3)cc2)COC1` [Example 90, (4-(3-methoxyoxetan-3-yl)phenyl)(2-(4-(trifluoromethyl)phenyl)-2,6-dihydropyrrolo[3,4-c]pyrazol-5(4H)-yl)methanone], in that order: 3%, 39%, 74% and -5.5 ± 4.5%.
For `COC1(c2ccc(C(=O)N3CCN(c4ccc(C(F)(F)F)cc4)CC3)cc2)COC1` [Example 53, (4-(3-methoxyoxetan-3-yl)phenyl)(4-(4-(trifluoromethyl)phenyl)piperazin-1-yl)methanone], the “% increase in LDL Uptake” value turned out to be 4% in assay [1] (1 μM test compound), 80% in assay [1] (10 μM test compound) and 129% in assay [1] (30 μM test compound). Besides, in assay [2], the change in vivo at 30 mg/kg was -15 ± 6%.
Turning to `COC1(c2ccc(C(=O)N3CCCC(c4ccc(C(F)(F)F)cc4)C3)cc2)COC1` (centres unmarked) [Example 39, (4-(3-methoxyoxetan-3-yl)phenyl)(3-(4-(trifluoromethyl)phenyl)piperidin-1-yl)methanone], the “% increase in LDL Uptake” value in assay [1] (1 μM test compound) is given as 26%; in assay [1] (10 μM test compound), 149%; in assay [1] (30 μM test compound) it was 147%. Besides, the change in vivo at 30 mg/kg in assay [2] is -29 ± 5%.
For `O=C(c1cccc(C2(O)COC2)c1)N1CCC(c2ccc(C(F)F)cc2)CC1` [Example 66, (4-(4-(difluoromethyl)phenyl)piperidin-1-yl)(3-(3-hydroxyoxetan-3-yl)phenyl)methanone], in that order: 0%, 24%, 159% and -24 ± 7.1%.
On to `O=C(Nc1cccc(C2(O)COC2)c1)N1CC2CN(c3ccc(C(F)(F)F)cc3)CC2C1` (centres unmarked) [Example 182, N-(3-(3-hydroxyoxetan-3-yl)phenyl)-5-(4-(trifluoromethyl)phenyl) hexahydropyrrolo[3,4-c]pyrrole-2(1H)-carboxamide], for which the “% increase in LDL Uptake” value in assay [1] (1 μM test compound) is given as 42%; in assay [1] (10 μM test compound) it was 37%; in assay [1] (30 μM test compound) it was 60%. Besides, the change in vivo at 30 mg/kg in assay [2] was -5 ± 11%.
